Laboratory results as given in patent publication US20040235049A1, “Device for presentation of polypeptides able to be used as a chip for miniaturised detection of molecules” (priority 2001, published 2004).

Tested on: antibodies of positive and negative sera (HCV)
Test: Ketone-functionalised (transaminated) peptide on semicarbazide slides tested with sera
Type: binding, human
Conditions: 16 spots, peptide 10^−4 M
Method: The slides are then incubated in the presence of 100 μl of serum from patients diluted to 1/50th in the dilution buffer (PBS+2.5% of powdered semi-skimmed milk+0.5% of Tween 20) under a glass cover slip (24×60 mm). […] 4 successive washes are then effected for 3 minutes in PBS solution with 0.05% added Tween 20.
The reaction of the antibodies of patients with the polypeptides attached to the slide is detected by the binding onto these of fluorescent anti-human IgG antibodies. 100 μl of solution of anti-human IgG-A-M antibodies labelled with rhodamine (TRITC) (Jackson ImmunoResearch Laboratories, Baltimore, US) diluted to 1/100th in the dilution buffer (PBS+2.5% of powdered semi-skimmed milk+0.5% of Tween 20) are then deposited onto each slide. Each slide is then covered with a cover slip (24×60 mm) and left to incubate for 1 hours at 37° C. under a moist atmosphere. A series of 4 successive washes in PBS solution with 0.05% of added Tween 20 is carried out.
The fluorescence emitted is then detected using a slide scanner (L35/PMT 50, Affymetrix 418 Chip Scanner, MWG).
The 2 peptides HCVpc21-Met (non-transaminated) and pc21-TA (transaminated) and also the peptide HCVpc21-2 (described in Example 3) were attached to semicarbazide slides at the rate of 16 spots of each peptide per slide.
Each peptide was deposited at the concentration of 10^−4 M.
The slides were incubated in the presence of 4 positive sera and 2 negative sera.

## H-MTNRRPQDVKFPGGGQIVGGVYLLPRRGPRLG-NH2 [pc21-Met, non-transaminated control peptide]
Serum 41, ELISA o.d. 1.4
  Mean Fluorescence: 960
Serum 43, ELISA o.d. 1.7
  Mean Fluorescence: 2810
Serum 45, ELISA o.d. 0.7
  Mean Fluorescence: 356
Serum 48, negative
  Mean Fluorescence: 59
Serum 53, ELISA o.d. 2.7
  Mean Fluorescence: 7741
Serum 55, negative
  Mean Fluorescence: 55
